Our source for the T/C values is PubChem BioAssay AID248 (DTP/NCI, 2004).

This assay relates to L1210 leukemia ip in BDF1 mice, survival T/C. Briefly: NCI In Vivo Anticancer Drug Screen. Data for tumor model L1210 Leukemia (intraperitoneal) in B6D2F1 (BDF1) mice. Particulars: endpoint: mean survival time, higher = longer survival. The method in brief:
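Each compound was tested against a transplantable tumor grown in mice. The endpoint was survival, with treated animals benchmarked against vehicle controls as a simple ratio.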

Several values for one entry are separate records, joined by “and”; a condition that tells them apart may be missing. Equal entries are not always repeated. Inconclusive results and toxic doses are left out.

As to `O=c1ccc([N+](=O)[O-])c[nH]1.[Ag]`, the T/C was 86 % of control (dose: 6.25 mg/kg/injection, schedule: Q01DX009 (ip), vehicle: Klucel (hydroxypropylcellulose) (HPC)); 86 % of control (dose: 12.5 mg/kg/injection, schedule: Q01DX009 (ip), vehicle: Klucel (hydroxypropylcellulose) (HPC)); 88 % of control (dose: 12.5 mg/kg/injection, schedule: Q04DX003 (ip), vehicle: Klucel (hydroxypropylcellulose) (HPC)); 95 % of control (dose: 25.0 mg/kg/injection, schedule: Q01DX009 (ip), vehicle: Klucel (hydroxypropylcellulose) (HPC)); 99 % of control (dose: 25.0 mg/kg/injection, schedule: Q04DX003 (ip), vehicle: Klucel (hydroxypropylcellulose) (HPC)).
With `CC(=O)c1cccc(N=C=O)c1`, the T/C is, setting by setting: (dose: 25.0 mg/kg/injection, schedule: Q01DX001 (ip), vehicle: saline with Tween-80) 101 % of control; (dose: 50.0 mg/kg/injection, schedule: Q01DX001 (ip), vehicle: saline with Tween-80) 93 % of control; (dose: 100.0 mg/kg/injection, schedule: Q01DX001 (ip), vehicle: saline with Tween-80) 111 % of control.
For the molecule `O=NN(CCCl)C(=O)NC1CCSc2ccccc21` (configuration not stated), the T/C by setting is: (dose: 18.0 mg/kg/injection, schedule: Q01DX001 (ip), vehicle: other) 170 % of control and 182 % of control and 219 % of control; (dose: 26.0 mg/kg/injection, schedule: Q01DX001 (ip), vehicle: other) 232 % of control; (dose: 27.0 mg/kg/injection, schedule: Q01DX001 (ip), vehicle: other) 306 % of control and 315 % of control; (dose: 40.0 mg/kg/injection, schedule: Q01DX001 (ip), vehicle: other) 323 % of control and 340 % of control and 356 % of control; (dose: 60.0 mg/kg/injection, schedule: Q01DX001 (ip), vehicle: other) 289 % of control and 313 % of control and 365 % of control; (dose: 187.5 mg/kg/injection, schedule: Q01DX001 (ip), vehicle: other) 96 % of control.
In the case of `S=c1[nH]nc2scnn12`, the T/C was 94 % of control (dose: 50.0 mg/kg/injection, schedule: Q01DX001 (ip), vehicle: carboxymethylcellulose (CMC)); 94 % of control (dose: 100.0 mg/kg/injection, schedule: Q01DX001 (ip), vehicle: carboxymethylcellulose (CMC)); 97 % of control (dose: 200.0 mg/kg/injection, schedule: Q01DX001 (ip), vehicle: carboxymethylcellulose (CMC)); 94 % of control (dose: 400.0 mg/kg/injection, schedule: Q01DX001 (ip), vehicle: carboxymethylcellulose (CMC)).
On to `CCCCCCCCCCNC(=O)C[n+]1cccc(C(=O)N(CC)CC)c1`, for which the T/C was 94 % of control (dose: 6.25 mg/kg/injection, schedule: Q04DX003 (ip), vehicle: saline); 96 % of control (dose: 12.5 mg/kg/injection, schedule: Q04DX003 (ip), vehicle: saline); 93 % of control (dose: 25.0 mg/kg/injection, schedule: Q04DX003 (ip), vehicle: saline).
As for `O=C(O)c1cc(-c2ccc(Cl)cc2)nc2c(Cl)cccc12`, the T/C is 95 % of control (dose: 20.0 mg/kg/injection, schedule: Q01DX009 (ip), vehicle: Klucel (hydroxypropylcellulose) (HPC)); 107 % of control (dose: 20.0 mg/kg/injection, schedule: Q04DX003 (ip), vehicle: Klucel (hydroxypropylcellulose) (HPC)); 103 % of control (dose: 40.0 mg/kg/injection, schedule: Q01DX009 (ip), vehicle: Klucel (hydroxypropylcellulose) (HPC)); 100 % of control (dose: 40.0 mg/kg/injection, schedule: Q04DX003 (ip), vehicle: Klucel (hydroxypropylcellulose) (HPC)); 108 % of control (dose: 80.0 mg/kg/injection, schedule: Q01DX009 (ip), vehicle: Klucel (hydroxypropylcellulose) (HPC)); 97 % of control (dose: 80.0 mg/kg/injection, schedule: Q04DX003 (ip), vehicle: Klucel (hydroxypropylcellulose) (HPC)).
